Laboratory results reported in patent US8883470B2, “Fermentation of carbohydrate” (Anitox Corporation, priority 2009, dated 2014).
Like-named read-outs stand apart in the source and are kept apart here.

Experiments:
Yeast [1] = test system: Yeast
Procedure: (§5) After 24 h, 30 g of corn from each treatment was finely ground and added to glass fermenters with water, enzyme and yeast as described below. Lactobacillus plantarum (B-4496) grown in MRS broth was added to the fermentation bottles (0.1 ml of 6.2×10^10 cfu/mL). Samples were taken after 72 hours fermentation for yeast and Lactobacillus counts.

Lactobacillus [2] = test system: Lactobacillus
Procedure: (§1) Ethanol production and microbiological profile were analyzed in four fermentation studies using corn treated with 0 (control), 0.45 and 0.90 Kg/MT Formaldehyde. Ground corn and water were mixed and incubated at room temperature in a air-tight 250-ml fermenter jars for 6 hours. This was done in order to increase the naturally occurring Lactobacillus in corn. Previous studies have shown that the level of Lactobacillus is less than 100 cfu/gr in corn. The other reagents were added into the fermenters as described in the following table.
(§2) After the addition of all the reagents, fermenters were sealed with a cap containing a water trap. Fermenters were kept under constant stirring (low speed) at room temperature (21-23° C.) for 72 hours before sampling for yeast, Lactobacillus and alcohol production. Lactobacillus counts were determined on MRS broth containing 1.5% Difco™ Agar. Plates were incubated in an anaerobic chamber at 37-C for 48 hours and colonies enumerated. Yeast counts were determined on PDA plates. Plates were incubated at 27° C. for 48 hours and colonies enumerated. Alcohol was determined by FT-IR (FOSS system).

Yeast [3] = test system: Yeast; remark: listed apart in the source
Procedure: as §1, §2

Wild Lactobacillus = test system: Wild Lactobacillus
Procedure: (§3) Wild Lactobacillus and yeast/mold profile were determined in four studies using corn treated with 0 (control), 0.45 and 0.90 Kg/MT Formaldehyde (HCHO). Ground corn and water were mixed and incubated at room temperature (21-23° C.) in an anaerobic environment for 24 hours. To 5 gr of ground corn 45 ml of Butterfield was added and incubated overnight in a closed container while stirring at room temperature. After incubation, samples were taken to enumerate wild yeast/mold and Lactobacillus.

wild yeast/mold = test system: wild yeast/mold
Procedure: as §3

[4] = test system: Lactobacillus plantarum (B-4496)
Procedure: as §5

Yeast [5] = test system: Yeast; remark: listed apart in the source
Procedure: (§4) Whole corn obtained from a commercial source was treated with formalin (37% formaldehyde solution) at 0, 0.9, 1.8 and 2.7 kg/MT. After 24 h, 30 g of corn from each treatment was finely ground and added to glass fermenters with water, enzyme and yeast as described below. Lactobacillus plantarum (B-4496) grown in MRS broth was added to the fermentation bottles (0.2 ml of 6.2×10^5 cfu/g). Samples were taken after 72 hours fermentation for yeast and Lactobacillus counts. The whole content of the fermentations bottles were centrifuged for 30 minutes at 5000 rpm, filtered through cheesecloth and through a 0.45 u tilter to quantify ethanol production. Treatments are listed on the following table

[6] = test system: Lactobacillus plantarum (B-4496); settings: control also 0
Procedure: as §4

Lactobacillus [7] = settings: 600 mg/L, cited from earlier work
Lactobacillus [8] = settings: during fermentation; cited from earlier work
Yeast [9] = settings: 8 g/L; beet molasses batch fermentation; cited from earlier work
yeast populations = settings: 100 to 400 mg/L; cited from earlier work
Yeast [10] = settings: cited from earlier work

## C=O [Formaldehyde, formaldehyde]
Yeast [1]; 0.9 kg/MT
  Yeast (cfu/ml) 72 h: 8.8 × 10^8 cfu/ml
Yeast [1]; 1.8 kg/MT
  Yeast (cfu/ml) 72 h: 6.6 × 10^8 cfu/ml
Yeast [1]; 2.7 kg/MT
  Yeast (cfu/ml) 72 h: 8.0 × 10^8 cfu/ml
Lactobacillus [2]; 0.45 kg/MT, Study 9
  Lactobacillus (cfu/gr) after 72-h Fermentation: 8.5 × 10^8 cfu/gr
Lactobacillus [2]; 0.45 kg/MT, Study 10
  Lactobacillus (cfu/gr) after 72-h Fermentation: 5.2 × 10^8 cfu/gr
Lactobacillus [2]; 0.45 kg/MT, Study 12
  Lactobacillus (cfu/gr) after 72-h Fermentation: 8.9 × 10^8 cfu/gr
Lactobacillus [2]; 0.9 kg/MT, Study 9
  Lactobacillus (cfu/gr) after 72-h Fermentation: 7.4 × 10^8 cfu/gr
Lactobacillus [2]; 0.9 kg/MT, Study 10
  Lactobacillus (cfu/gr) after 72-h Fermentation: 4.3 × 10^8 cfu/gr
Lactobacillus [2]; 0.9 kg/MT, Study 12
  Lactobacillus (cfu/gr) after 72-h Fermentation: 9.4 × 10^8 cfu/gr
Yeast [3]; 0.45 kg/MT, Study 9
  Yeast (cfu/gr) after 72-h Fermentation: 9.5 × 10^8 cfu/gr
Yeast [3]; 0.45 kg/MT, Study 10
  Yeast (cfu/gr) after 72-h Fermentation: 1.2 × 10^9 cfu/gr
Yeast [3]; 0.45 kg/MT, Study 11
  Yeast (cfu/gr) after 72-h Fermentation: 4.7 × 10^9 cfu/gr
Yeast [3]; 0.45 kg/MT, Study 12
  Yeast (cfu/gr) after 72-h Fermentation: 1.8 × 10^9 cfu/gr
Yeast [3]; 0.9 kg/MT, Study 9
  Yeast (cfu/gr) after 72-h Fermentation: 7.4 × 10^8 cfu/gr
Yeast [3]; 0.9 kg/MT, Study 10
  Yeast (cfu/gr) after 72-h Fermentation: 1.1 × 10^9 cfu/gr
Yeast [3]; 0.9 kg/MT, Study 11
  Yeast (cfu/gr) after 72-h Fermentation: 3.6 × 10^9 cfu/gr
Yeast [3]; 0.9 kg/MT, Study 12
  Yeast (cfu/gr) after 72-h Fermentation: 1.8 × 10^9 cfu/gr
Wild Lactobacillus; 0.45 kg/MT, Study 1
  Lactobacillus (cfu/gr) after 24-h Incubation: 4.0 × 10^5 cfu/gr
Wild Lactobacillus; 0.45 kg/MT, Study 2
  Lactobacillus (cfu/gr) after 24-h Incubation: 9.3 × 10^5 cfu/gr
Wild Lactobacillus; 0.45 kg/MT, Study 3
  Lactobacillus (cfu/gr) after 24-h Incubation: 2.9 × 10^4 cfu/gr
Wild Lactobacillus; 0.45 kg/MT, Study 4
  Lactobacillus (cfu/gr) after 24-h Incubation: 7.7 × 10^5 cfu/gr
Wild Lactobacillus; 0.9 kg/MT, Study 1
  Lactobacillus (cfu/gr) after 24-h Incubation: 6.2 × 10^4 cfu/gr
Wild Lactobacillus; 0.9 kg/MT, Study 2
  Lactobacillus (cfu/gr) after 24-h Incubation: 1.2 × 10^4 cfu/gr
Wild Lactobacillus; 0.9 kg/MT, Study 3
  Lactobacillus (cfu/gr) after 24-h Incubation: 9.0 × 10^3 cfu/gr
Wild Lactobacillus; 0.9 kg/MT, Study 4
  Lactobacillus (cfu/gr) after 24-h Incubation: 8.1 × 10^4 cfu/gr
Wild yeast/mold; 0.45 kg/MT, Study 1
  Yeast (cfu/gr) after 24-h Incubation: 3.0 × 10^5 cfu/gr
Wild yeast/mold; 0.45 kg/MT, Study 2
  Yeast (cfu/gr) after 24-h Incubation: 7.0 × 10^5 cfu/gr
Wild yeast/mold; 0.45 kg/MT, Study 3
  Yeast (cfu/gr) after 24-h Incubation: 1.6 × 10^5 cfu/gr
Wild yeast/mold; 0.45 kg/MT, Study 4
  Yeast (cfu/gr) after 24-h Incubation: 3.2 × 10^5 cfu/gr
Wild yeast/mold; 0.9 kg/MT, Study 1
  Yeast (cfu/gr) after 24-h Incubation: 7.6 × 10^4 cfu/gr
Wild yeast/mold; 0.9 kg/MT, Study 2
  Yeast (cfu/gr) after 24-h Incubation: 5.6 × 10^6 cfu/gr
Wild yeast/mold; 0.9 kg/MT, Study 3
  Yeast (cfu/gr) after 24-h Incubation: 2.0 × 10^3 cfu/gr
Wild yeast/mold; 0.9 kg/MT, Study 4
  Yeast (cfu/gr) after 24-h Incubation: 2.6 × 10^5 cfu/gr
[4]; 0.9 kg/MT
  Lactobacillus (cfu/ml) 72 h: 9.8 × 10^7 cfu/ml
[4]; 1.8 kg/MT
  Lactobacillus (cfu/ml) 72 h: 4.7 × 10^7 cfu/ml
[4]; 2.7 kg/MT
  Lactobacillus (cfu/ml) 72 h: 3.7 × 10^7 cfu/ml
[4]; Lactobacillus added at higher concentrations
  decrease in cfu's of Lactobacillus: 1 log
Yeast [5]; 0.9 kg/MT
  Yeast (cfu/ml) 72 h: 9.50 × 10^8 cfu/ml
Yeast [5]; 1.8 kg/MT
  Yeast (cfu/ml) 72 h: 6.60 × 10^8 cfu/ml
Yeast [5]; 2.7 kg/MT
  Yeast (cfu/ml) 72 h: 4.20 × 10^8 cfu/ml
[6]; 0.9 kg/MT
  Lactobacillus (cfu/ml) 72 h: 0 cfu/ml
[6]; 1.8 kg/MT
  Lactobacillus (cfu/ml) 72 h: 0 cfu/ml
[6]; 2.7 kg/MT
  Lactobacillus (cfu/ml) 72 h: 0 cfu/ml

## O=C(O)CCC(=O)O [Succinic acid]
Lactobacillus [7]; by itself
  reduction of Lactobacillus concentrations: 78%
Lactobacillus [7]; in the presence of ethanol
  reduction of Lactobacillus concentrations: up to 96%

## NC(N)=O.OO [UHP, Urea hydrogen peroxide]
Lactobacillus [8]
  bactericidal activity against Lactobacillus: excellent bactericidal activity

## CC(O)C(=O)O (centres unmarked) [lactic acid]
Yeast [9]
  reduction of alcohol production rate: 80%
  reduction of yeast viability: 95%

## O=S(O)O [sulfite]
Yeast populations
  effect on yeast populations: did not affect yeast populations

## virginiamycin
Yeast [10]
  inhibition of the yeast: does not significantly inhibit the yeast
